From ChEMBL document CHEMBL1156278, “Novel benzothiophene H1-antihistamines for the treatment of insomnia” (Bioorg Med Chem Lett, 2010)
Calls of active or inactive are those of the source. No cut-off for these calls is given here.

Experiments:
Histamine H1 receptor = Histamine H1 receptor (Homo sapiens, UniProt P35367); test: Displacement of [3H]pyrilamine from human histamine H1 receptor expressed in CHO Flp-In cells after 90 mins by scintillation counting; format: cell-based
[1] = molecular target: T1, Muscarinic acetylcholine receptor M1 (Homo sapiens, UniProt P11229); test: Displacement of [3H]N-methylscopolamine from human muscarinic M1 receptor expressed in CHO Flp-In cells after 90 mins by scintillation counting; format: cell-based
T1 sequence (P11229 whole entry): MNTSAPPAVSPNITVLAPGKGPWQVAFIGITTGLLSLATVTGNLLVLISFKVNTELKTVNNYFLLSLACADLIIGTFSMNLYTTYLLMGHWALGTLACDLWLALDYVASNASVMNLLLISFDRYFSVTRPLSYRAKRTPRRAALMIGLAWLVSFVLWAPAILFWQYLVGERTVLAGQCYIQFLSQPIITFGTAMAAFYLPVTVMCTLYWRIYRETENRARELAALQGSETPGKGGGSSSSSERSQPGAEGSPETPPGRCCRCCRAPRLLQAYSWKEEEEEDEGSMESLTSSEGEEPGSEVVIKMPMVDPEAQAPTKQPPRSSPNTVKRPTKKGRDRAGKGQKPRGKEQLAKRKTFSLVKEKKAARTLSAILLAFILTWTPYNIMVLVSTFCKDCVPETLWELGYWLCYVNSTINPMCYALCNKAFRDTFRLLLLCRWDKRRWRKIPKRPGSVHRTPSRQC

Cytochrome P450 2D6 = Cytochrome P450 2D6 (Homo sapiens, UniProt P10635); test: Inhibition of recombinant CYP2D6 after 30 mins by fluorescence assay
Cytochrome P450 3A4 = Cytochrome P450 3A4 (Homo sapiens, UniProt P08684); test: Inhibition of recombinant CYP3A4 after 30 mins by fluorescence assay
[2] = molecular target: T2, Voltage-gated inwardly rectifying potassium channel KCNH2 (Homo sapiens, UniProt Q12809); test: Displacement of [3H]Dofetilide from human ERG
[3] = molecular target: T2, Voltage-gated inwardly rectifying potassium channel KCNH2; test: Inhibition of human ERG expressed in HEK cells assessed as blockade of potassium tail current by standard patch clamp analysis
Rattus norvegicus [4] = test: Increase in REM sleep in CD IGS rat model of insomnia at 30 mg/kg, po after 4 hrs by EEG/EMG study relative to control; format: functional
Rattus norvegicus [5] = test: Increase in NREM sleep in CD IGS rat model of insomnia at 30 mg/kg, po after 4 hrs by EEG/EMG study relative to control; format: functional
Rattus norvegicus [6] = test: Effect on sleep-awake pattern in CD IGS rat model of insomnia assessed as latency to NREM sleep at 30 mg/kg, po by EEG/EMG study relative to control; format: functional
Rattus norvegicus [7] = test: Effect on sleep-awake pattern in CD IGS rat model of insomnia assessed as longest 3 NREM bouts at 30 mg/kg, po after 6 hrs by EEG/EMG study relative to control; format: functional
Rattus norvegicus [8] = test: Effect on sleep-awake pattern in CD IGS rat model of insomnia assessed as latency to REM sleep at 30 mg/kg, po by EEG/EMG study relative to control; format: functional
Rattus norvegicus [9] = test: Effect on sleep-awake pattern in CD IGS rat model of insomnia assessed as longest 3 REM bouts at 30 mg/kg, po after 6 hrs by EEG/EMG study relative to control; format: functional
[10] = Apparent permeability across human Caco-2 cells; format: ADME, cell-based
[11] = Drug level in rat plasma at 30 mg/kg, po after 4 hrs; format: ADME, organism-based; parameters: dose 30 mg/kg, route oral
[12] = Drug level in rat brain at 30 mg/kg, po after 4 hrs; format: ADME, organism-based; parameters: dose 30 mg/kg, route oral; conditions: read-out: Drug uptake
[13] = Ratio of drug level in rat brain to plasma at 30 mg/kg, po after 4 hrs; format: ADME, organism-based; parameters: dose 30 mg/kg, route oral
[14] = Activity at P-glycoprotein
[15] = Systemic clearance in human at 0.1 mg/kg, iv by microdose study; format: ADME, organism-based; parameters: dose 0.1 mg/kg, route intravenous; conditions: in vivo
[16] = AUC (0 to t) in human at 0.1 mg/kg, po by microdose study; format: ADME, organism-based; parameters: dose 0.1 mg/kg, route oral; conditions: plasma
[17] = Half life in human at 0.1 mg/kg by microdose study; format: ADME, organism-based; parameters: dose 0.1 mg/kg; conditions: in vivo
[18] = Bioavailability in human at 0.1 mg/kg by microdose study; format: ADME, organism-based; conditions: in vivo
Caco-2 = test: Ratio of permeability from apical to basolateral side over basolateral to apical side in human Caco-2 cells

Cytochrome P450 2D6, sequence (P10635 whole entry): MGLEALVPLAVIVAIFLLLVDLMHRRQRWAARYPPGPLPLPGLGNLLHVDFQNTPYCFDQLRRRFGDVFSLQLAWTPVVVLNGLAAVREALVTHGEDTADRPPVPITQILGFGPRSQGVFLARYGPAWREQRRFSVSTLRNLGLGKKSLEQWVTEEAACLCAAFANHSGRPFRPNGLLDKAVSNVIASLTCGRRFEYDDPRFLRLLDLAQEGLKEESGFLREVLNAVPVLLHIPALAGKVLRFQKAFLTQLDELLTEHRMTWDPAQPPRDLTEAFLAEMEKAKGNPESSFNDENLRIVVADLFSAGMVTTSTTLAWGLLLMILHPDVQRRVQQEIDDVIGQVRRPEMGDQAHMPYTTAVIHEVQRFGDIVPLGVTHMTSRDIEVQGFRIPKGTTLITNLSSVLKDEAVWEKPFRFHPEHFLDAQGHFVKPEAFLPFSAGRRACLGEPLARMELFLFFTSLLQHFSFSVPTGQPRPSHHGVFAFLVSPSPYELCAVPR
Histamine H1 receptor, sequence (P35367 whole entry): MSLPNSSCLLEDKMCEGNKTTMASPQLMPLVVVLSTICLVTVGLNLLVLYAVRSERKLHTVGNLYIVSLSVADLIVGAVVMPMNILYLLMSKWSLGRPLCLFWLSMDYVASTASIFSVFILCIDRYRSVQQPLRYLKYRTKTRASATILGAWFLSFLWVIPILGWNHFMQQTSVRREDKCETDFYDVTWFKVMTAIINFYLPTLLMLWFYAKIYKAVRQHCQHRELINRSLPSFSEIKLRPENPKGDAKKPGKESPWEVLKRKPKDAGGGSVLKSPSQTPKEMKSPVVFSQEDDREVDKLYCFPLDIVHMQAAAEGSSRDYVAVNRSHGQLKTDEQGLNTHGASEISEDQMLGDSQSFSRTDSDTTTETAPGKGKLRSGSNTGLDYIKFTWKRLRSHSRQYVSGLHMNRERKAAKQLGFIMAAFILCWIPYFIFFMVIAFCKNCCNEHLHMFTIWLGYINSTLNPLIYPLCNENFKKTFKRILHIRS
T2 sequence (Q12809 whole entry): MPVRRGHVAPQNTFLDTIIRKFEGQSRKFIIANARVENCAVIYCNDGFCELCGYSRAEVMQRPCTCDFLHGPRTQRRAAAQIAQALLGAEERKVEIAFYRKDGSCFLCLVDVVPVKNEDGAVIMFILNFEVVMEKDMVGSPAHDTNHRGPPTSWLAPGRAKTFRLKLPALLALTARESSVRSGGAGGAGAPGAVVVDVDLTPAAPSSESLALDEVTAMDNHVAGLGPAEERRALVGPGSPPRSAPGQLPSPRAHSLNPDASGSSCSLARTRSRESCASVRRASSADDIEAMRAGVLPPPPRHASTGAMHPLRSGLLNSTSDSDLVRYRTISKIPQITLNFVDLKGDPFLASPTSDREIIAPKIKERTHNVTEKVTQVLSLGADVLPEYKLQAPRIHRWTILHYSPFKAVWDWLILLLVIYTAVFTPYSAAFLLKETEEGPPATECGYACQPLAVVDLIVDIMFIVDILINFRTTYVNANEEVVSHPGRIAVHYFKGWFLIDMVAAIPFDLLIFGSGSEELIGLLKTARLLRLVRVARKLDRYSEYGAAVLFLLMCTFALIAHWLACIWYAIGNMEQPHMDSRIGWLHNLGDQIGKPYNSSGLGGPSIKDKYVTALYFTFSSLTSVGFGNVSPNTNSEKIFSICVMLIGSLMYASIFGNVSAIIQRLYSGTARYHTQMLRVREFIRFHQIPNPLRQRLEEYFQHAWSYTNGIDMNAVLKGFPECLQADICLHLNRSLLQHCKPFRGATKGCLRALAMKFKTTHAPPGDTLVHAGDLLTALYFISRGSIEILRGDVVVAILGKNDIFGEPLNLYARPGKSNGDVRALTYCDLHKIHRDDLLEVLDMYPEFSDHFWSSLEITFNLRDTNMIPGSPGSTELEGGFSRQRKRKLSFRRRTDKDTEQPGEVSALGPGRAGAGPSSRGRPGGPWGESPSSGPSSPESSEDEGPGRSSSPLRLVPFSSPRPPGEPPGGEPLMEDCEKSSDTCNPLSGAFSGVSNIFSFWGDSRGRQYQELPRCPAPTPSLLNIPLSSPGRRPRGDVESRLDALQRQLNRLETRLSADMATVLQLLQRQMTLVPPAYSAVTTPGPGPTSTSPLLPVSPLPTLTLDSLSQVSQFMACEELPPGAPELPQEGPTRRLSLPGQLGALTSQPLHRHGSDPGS
Cytochrome P450 3A4, sequence (P08684 whole entry): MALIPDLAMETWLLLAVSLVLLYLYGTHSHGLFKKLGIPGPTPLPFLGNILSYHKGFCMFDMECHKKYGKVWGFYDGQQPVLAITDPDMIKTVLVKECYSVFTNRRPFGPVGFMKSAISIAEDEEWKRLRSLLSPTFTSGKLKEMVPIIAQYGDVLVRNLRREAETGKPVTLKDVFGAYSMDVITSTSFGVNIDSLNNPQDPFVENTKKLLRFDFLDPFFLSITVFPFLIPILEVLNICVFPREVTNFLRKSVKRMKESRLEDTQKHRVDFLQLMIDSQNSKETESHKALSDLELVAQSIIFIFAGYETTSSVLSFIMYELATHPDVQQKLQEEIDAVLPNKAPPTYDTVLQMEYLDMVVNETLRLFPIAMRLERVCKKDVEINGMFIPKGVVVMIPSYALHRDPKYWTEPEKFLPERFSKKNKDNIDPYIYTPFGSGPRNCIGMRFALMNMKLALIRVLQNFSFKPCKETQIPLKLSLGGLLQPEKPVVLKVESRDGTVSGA

| Compound | Ki (Histamine H1 receptor; read-out: Ki) [µM] | Ki ([1]; read-out: Ki) [µM] | IC50 (Cytochrome P450 2D6) [µM] | IC50 (Cytochrome P450 3A4) [µM] | Ki [2] [µM] | IC50 [3] [µM] | also measured |
| --- | --- | --- | --- | --- | --- | --- | --- |
| C[C@@H](c1ncccc1F)c1c(CCN(C)C)sc2ccccc12 | 0.0027 | 2.2 | 4 | > 10 | > 5 | 0.33 | – |
| CC(c1ccccn1)c1c(CCN(C)C)sc2ccccc12 (racemic) | 0.012 | 1.4 | 6.9 | > 10 | > 5 | – | – |
| CC(c1c(CCN(C)C)sc2ccccc12)n1ccnc1 (racemic) | 0.122 | – | – | 5.2 | > 5 | – | – |
| Cc1ccc(-c2nc3ccc(C)cn3c2CC(=O)N(C)C)cc1 [ZOLPIDEM] | – | – | – | – | – | – | Activity (Rattus norvegicus [4]): 2.3%; Activity (Rattus norvegicus [5]): 47.8%; Activity (Rattus norvegicus [6]): 6 min; Activity (Rattus norvegicus [7]): 14.5 min; Activity (Rattus norvegicus [8]): 101 min; Activity (Rattus norvegicus [9]): 1.2 min |
| C[C@@H](c1ncccc1Cl)c1c(CCN(C)C)sc2ccccc12 | 0.008 | > 10 | 1.5 | > 10 | > 5 | – | – |
| COc1cccnc1[C@H](C)c1c(CCN(C)C)sc2ccccc12 | 0.005 | > 10 | 9.5 | > 10 | > 5 | 3 | – |
| Cc1ncccc1[C@@H](C)c1c(CCN(C)C)sc2ccccc12 | 0.017 | > 10 | > 10 | > 10 | > 5 | – | – |
| C[C@@H](c1ccccn1)c1c(CCN2CCC2)sc2ccccc12 | 0.0039 | > 10 | > 10 | > 10 | 4.2 | 0.73 | – |
| Cc1cccnc1[C@H](C)c1c(CCN(C)C)sc2ccccc12 | 0.0093 | > 10 | – | > 10 | – | – | – |
| C[C@@H](c1ccccn1)c1c(CCN(C)C)sc2ccccc12 | 0.004 | – | – | > 10 | > 5 | 1.4 | Ki [1]: 5.3 µM; Papp [10]: > 21.7 ×10⁻⁶ cm/s; concentration at 4 h [11]: 2.8 ng/mL; concentration at 4 h [12]: 23 ng/g; Kp at 4 h ([13]; read-out: Ratio): 8; Activity [14]: inactive; clearance [15]: 6.2 mL/min/kg; AUC(0-t) [16]: 2.78 ng·h/mL; half-life [17]: 6.8 h; bioavailability [18]: 47%; Ratio (Caco-2): > 0.7 |
| C[C@H](c1c(CCN(C)C)sc2ccccc12)n1cccn1 | 0.0044 | > 10 | – | > 10 | > 5 | 2 | Papp [10]: > 21.7 ×10⁻⁶ cm/s; concentration at 4 h [11]: 0.6 ng/mL; concentration at 4 h [12]: 11 ng/g; Kp at 4 h ([13]; read-out: BPR): 20; Activity [14]: inactive; Ratio (Caco-2): > 0.7 |
| COc1ccc(C(C)c2c(CCN(C)C)sc3ccccc23)cn1 (racemic) | 0.12 | > 10 | – | > 10 | > 5 | – | – |
| COc1cccc(C(C)c2c(CCN(C)C)sc3ccccc23)n1 (racemic) | 0.059 | > 10 | – | > 10 | > 5 | – | – |
| C[C@H](c1ccccn1)c1c(CCN(C)C)sc2ccccc12 | – | 0.99 | 3.3 | > 10 | > 5 | – | Ki (Histamine H1 receptor): 0.256 µM |
